Measurements: patent US6197774A, “Pyrimidine derivative” (Otsuka Pharmaceutical Co., Ltd., priority 1997, dated 2001)

Test system: formation of NO in cell strain RAW 264.7
Assay: Activity for inhibiting the formation of NO (LPS-stimulated RAW 264.7 cells, Griess reagent)
Assay type: cell-based
Conditions: Mus musculus, RAW264.7, 1 × 10^-6 M, LPS 100 ng/ml, 24 hours, read-out: Ratio of formed amount of NO (reference culture medium = 100)
Protocol: [Evaluation test of activity for inhibiting the formation of NO]
Pharmacological tests of pyrimidine derivatives obtained in Examples 1, 12, 14, 19, 22, 24, 29 and 42 used as test compounds were conducted as follows.
Preparation of culture media and method of cell culture were conducted in accordance with those described in J. Biol. Chem., Vol. 269, No. 1, pp. 711-715, (1994), and determination of formed amount of NO was conducted in accordance with the method described in Anal. Biochem., Vol. 126, pp. 131-138, (1982), respectively.
(1) Cell Culture and Inducible Synthesis of NO in the Cells by Stimulation with Lipopolysaccharide (LPS)
Cell strain RAW 264.7 (ATCC) derived from the macrophage of mouse was placed on each one of the wells on a microplate having 24-wells so as to put the cells in an amount of 1×10^5 cells/U (well). The cells were incubated for 24 hours in a phenol red free-RPMI-1640 culture medium (mfd. by GIBCO) to which 10% of fetal bovine serum, 100 U/ml of penicillin (mfd. by Dainippon Pharmaceutical Co., Ltd.) and 100 μg/ml of streptomycin (mfd. by Dainippon Pharmaceutical Co., Ltd.) were added.
Next, the reference culture medium was prepared by adding 2 mM of L-arginine (mfd. by Wako Pure Chemical Industries, Ltd.), 10 μM/ml of tetrahydrobiopterin (mfd. by ALEXIS) and 100 ng/ml of lipopolysaccharide (LPS)(mfd. by Sigma Chemical Co.) to a phenol red free-RPMI-1640 culture medium. While, the reference culture medium without containing LPS was used as the blanc culture medium.
On the other hand, the test culture medium, containing the test compound was prepared by adding 0.2% of the test compounds dissolved in dimethyl sulfoxide (DMSO) to the reference culture medium to adjust the final concentration of the test compound to 1×10^-6 M.
Each one of the blank culture medium, reference culture medium and test culture medium containing the test compound was added, respectively to the well on the micro-plate where the above-mentioned cell strain RAW 264.7 was placed, and was incubated for 24 hours.
(2) Measurement of the Amount of Formed NO
Quantitative measurement of NO cannot be made directly, due to its unstability. Therefore, the amount of NO is measured indirectly, thus by forming nitrous acid ion (hereunder referred to as NO2^-) which is stable product derived from NO by use of Griess reagent [consisting of 1% of sulfanylamide and 0.1% of sulfuric acid solution containing 0.1% N-(1-naphthyl)ethylenediamine dihydrochloride], and measure the amount of NO2^-.
Into the supernatant of each one of the culture media was admixed with the same amount of Griess reagent respectively, and subjected to reaction at room temperature for 10 minutes, then the optical absorbance at 540 nm of the thus reacted culture medium was measured. While, the optical absorbance of sodium nitrite solution diluted with the culture medium was referred to as the standard value, and the amount of NO2^- formed in each one of these incubated culture media was measured. The amounts of NO2^- formed in the reference culture medium and the test culture medium were corrected by using the value of formed amount of NO2^- in the blanc culture medium.
On the basis of that the ratio of amounts of NO2^- formed in the reference culture medium and that of formed in the test culture medium is corresponding to the ratio of amount of NO formed in the reference culture medium and that of formed in the test culture medium. Thus the amount of NO2^- formed in the reference culture medium is referred to as the value of 100, and the value of amount of NO2^- formed in the test culture medium is referred to as amount of NO formed in the test culture medium.

COCc1cc(=O)n2ncc(-c3ccc(Sc4ccccc4)cc3)c2[nH]1 [Example 1, 4,7-dihydro-5-methoxymethyl-7-oxo-3-(4-phenylthiophenyl)pyrazolo[1,5-a]pyrimidine]
activity at 1 µM: 56%
